In ChEMBL document CHEMBL4651402, “Screening of ~5500 FDA-approved drugs and clinical candidates for anti-SARS-CoV-2 activity” (2021):

Test system: SARS-CoV-2
Assay: microbe, parasite or virus in culture
Conditions: Severe acute respiratory syndrome coronavirus 2, Vero C1008, 48 h

Row | SMILES | IC50 | IC50 (read-out: pIC50 (converted))
1 | CCOC(=O)N1c2ccc(C(F)(F)F)cc2[C@@H](N(Cc2cc(C(F)(F)F)cc(C(F)(F)F)c2)C(=O)OC)C[C@H]1CC [TORCETRAPIB] | > 20 µM | > 20 µM
2 | Cc1cccc(Nc2ccncc2S(=O)(=O)NC(=O)NC(C)C)c1 [TORSEMIDE] | > 20 µM | > 20 µM
3 | Cc1cc(Nc2cc(N3CCN(C)CC3)nc(Sc3ccc(NC(=O)C4CC4)cc3)n2)n[nH]1 [TOZASERTIB] | > 20 µM | > 20 µM
4 | CC(CN(C)C)CN1c2ccccc2OCOc2ccc(Cl)cc21 (centres undefined) [TRABOXOPINE] | > 20 µM | > 20 µM
5 | CCCCNc1c(C(=O)OCC)c(C)nc2c1cnn2CC [TRACAZOLATE] | > 20 µM | > 20 µM
6 | CC(=O)Nc1cccc(-n2c(=O)n(C3CC3)c(=O)c3c(Nc4ccc(I)cc4F)n(C)c(=O)c(C)c32)c1 [TRAMETINIB] | > 20 µM | > 20 µM
7 | CCOC(=O)[C@H](CCc1ccccc1)N[C@@H](C)C(=O)N1[C@H](C(=O)O)C[C@H]2CCCC[C@@H]21 [TRANDOLAPRIL] | > 20 µM | > 20 µM
8 | NC[C@H]1CC[C@H](C(=O)O)CC1 [TRANEXAMIC ACID] | > 20 µM | > 20 µM
9 | O=C(O)c1cc(=O)c2ccccc2[nH]1 [TRANSTORINE] | > 20 µM | > 20 µM
10 | C[C@@H]([C@@H](O)c1ccc(O)cc1)N1CCC(O)(c2ccccc2)CC1 [TRAXOPRODIL] | > 20 µM | > 20 µM
11 | O=c1n(CCCN2CCN(c3cccc(Cl)c3)CC2)nc2ccccn12 [TRAZODONE] | > 20 µM | > 20 µM
12 | CC1Oc2ccccc2CC1N(C)C (centres undefined) [TREBENZOMINE] | > 20 µM | > 20 µM
13 | OC[C@H]1O[C@H](O[C@H]2O[C@H](CO)[C@@H](O)[C@H](O)[C@H]2O)[C@H](O)[C@@H](O)[C@@H]1O [TREHALOSE] | > 20 µM | > 20 µM
14 | Cn1c(=O)cc(N2CCC[C@@H](N)C2)n(Cc2cc(F)ccc2C#N)c1=O [TRELAGLIPTIN] | > 20 µM | > 20 µM
15 | CS(=O)(=O)OC[C@H](O)[C@@H](O)COS(C)(=O)=O [TREOSULFAN] | > 20 µM | > 20 µM
16 | CCCCC[C@H](O)CC[C@@H]1[C@H]2Cc3cccc(OCC(=O)O)c3C[C@H]2C[C@H]1O [TREPROSTINIL] | > 20 µM | > 20 µM
17 | CC1=C(/C=C/C(C)=C/C=C/C(C)=C/C(=O)O)C(C)(C)CCC1 [TRETINOIN] | > 20 µM | > 20 µM
18 | CC(C)(C)C(=O)C(Oc1ccc(Cl)cc1)n1cncn1 (centres undefined) [TRIADIMEFON] | > 20 µM | > 20 µM
19 | CC1(C)O[C@@H]2C[C@H]3[C@@H]4CCC5=CC(=O)C=C[C@]5(C)[C@@]4(F)[C@@H](O)C[C@]3(C)[C@]2(C(=O)CO)O1 [TRIAMCINOLONE ACETONIDE] | > 20 µM | > 20 µM

Row | SMILES | IC50 | IC50 (read-out: pIC50 (converted))
20 | CC(=O)OCC(=O)[C@@]1(O)[C@H](OC(C)=O)C[C@H]2[C@@H]3CCC4=CC(=O)C=C[C@]4(C)[C@@]3(F)[C@@H](O)C[C@@]21C [TRIAMCINOLONE DIACETATE] | > 20 µM | > 20 µM
21 | CC(C)(C)CC(=O)OCC(=O)[C@@]12OC(C)(C)O[C@@H]1C[C@H]1[C@@H]3CCC4=CC(=O)C=C[C@]4(C)[C@@]3(F)[C@@H](O)C[C@@]12C [TRIAMCINOLONE HEXACETONIDE] | > 20 µM | > 20 µM
22 | C[C@]12C=CC(=O)C=C1CC[C@H]1[C@@H]3C[C@@H](O)[C@](O)(C(=O)CO)[C@@]3(C)C[C@H](O)[C@@]12F [TRIAMCINOLONE] | > 20 µM | > 20 µM
23 | Cc1nnc2n1-c1ccc(Cl)cc1C(c1ccccc1Cl)=NC2 [TRIAZOLAM] | > 20 µM | > 20 µM
24 | O=C(Nc1ccc(Br)cc1)c1cc(Br)cc(Br)c1O [TRIBROMSALAN] | > 20 µM | > 20 µM
25 | COP(=O)(OC)C(O)C(Cl)(Cl)Cl (centres undefined) [TRICHLORFON] | > 20 µM | > 20 µM
26 | NS(=O)(=O)c1cc2c(cc1Cl)NC(C(Cl)Cl)NS2(=O)=O (centres undefined) [TRICHLORMETHIAZIDE] | > 20 µM | > 20 µM
27 | CSc1nc2cc(Cl)c(Oc3cccc(Cl)c3Cl)cc2[nH]1 [TRICLABENDAZOLE] | > 20 µM | > 20 µM
28 | O=C(Nc1ccc(Cl)cc1)Nc1ccc(Cl)c(Cl)c1 [TRICLOCARBAN] | > 20 µM | > 20 µM
29 | CC[N+](CC)(CC)CCC(O)(c1ccccc1)C1CCCCC1 (centres undefined) [TRIDIHEXETHYL] | > 20 µM | > 20 µM
30 | NCCNCCNCCN [TRIENTINE] | > 20 µM | > 20 µM
31 | CN1C(=O)CC(=O)N(c2ccccc2)c2cc(C(F)(F)F)ccc21 [TRIFLUBAZAM] | > 20 µM | > 20 µM
32 | O=C(CCCN1CCC(O)(c2cccc(C(F)(F)F)c2)CC1)c1ccc(F)cc1 [TRIFLUPERIDOL] | > 20 µM | > 20 µM
33 | CN(C)CCCN1c2ccccc2Sc2ccc(C(F)(F)F)cc21 [TRIFLUPROMAZINE] | > 20 µM | > 20 µM
34 | O=c1[nH]c(=O)n([C@H]2C[C@H](O)[C@@H](CO)O2)cc1C(F)(F)F [TRIFLURIDINE] | > 20 µM | > 20 µM
35 | CC(=O)Oc1cc(C(F)(F)F)ccc1C(=O)O [TRIFLUSAL] | > 20 µM | > 20 µM
36 | C[n+]1cccc(C(=O)[O-])c1 [TRIGONELLINE] | > 20 µM | > 20 µM
37 | OC(CCN1CCCCC1)(c1ccccc1)C1CCCCC1 (centres undefined) [TRIHEXYPHENIDYL] | > 20 µM | > 20 µM
